The structures appear in SMILES notation.

This test concerns the target T1, sGC α1/β1 heterodimer stably expressed in CHO-K1 cell line (CHO-K1/sGC) (Homo sapiens, UniProt Q02108+Q02153).
T1 construct: expressed in transfected cells
T1 sequence (Q02108 1-690): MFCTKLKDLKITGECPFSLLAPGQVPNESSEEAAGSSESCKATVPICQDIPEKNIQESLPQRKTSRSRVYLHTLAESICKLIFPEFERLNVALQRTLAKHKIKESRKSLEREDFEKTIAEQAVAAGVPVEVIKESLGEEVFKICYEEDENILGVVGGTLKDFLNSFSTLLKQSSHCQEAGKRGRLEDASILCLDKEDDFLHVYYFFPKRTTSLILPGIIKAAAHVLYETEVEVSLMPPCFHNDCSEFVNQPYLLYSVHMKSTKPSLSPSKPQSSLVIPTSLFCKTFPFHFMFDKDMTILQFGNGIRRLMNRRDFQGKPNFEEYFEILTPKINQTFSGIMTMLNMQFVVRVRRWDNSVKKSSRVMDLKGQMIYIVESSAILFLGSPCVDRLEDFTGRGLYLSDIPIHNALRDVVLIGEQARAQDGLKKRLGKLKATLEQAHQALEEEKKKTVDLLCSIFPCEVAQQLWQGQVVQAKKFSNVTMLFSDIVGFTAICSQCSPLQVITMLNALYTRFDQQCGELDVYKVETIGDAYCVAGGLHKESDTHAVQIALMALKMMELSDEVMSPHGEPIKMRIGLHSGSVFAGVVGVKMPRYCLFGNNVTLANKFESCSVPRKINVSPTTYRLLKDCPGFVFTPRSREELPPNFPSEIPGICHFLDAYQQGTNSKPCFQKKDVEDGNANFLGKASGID
T1 sequence (Q02153 1-619): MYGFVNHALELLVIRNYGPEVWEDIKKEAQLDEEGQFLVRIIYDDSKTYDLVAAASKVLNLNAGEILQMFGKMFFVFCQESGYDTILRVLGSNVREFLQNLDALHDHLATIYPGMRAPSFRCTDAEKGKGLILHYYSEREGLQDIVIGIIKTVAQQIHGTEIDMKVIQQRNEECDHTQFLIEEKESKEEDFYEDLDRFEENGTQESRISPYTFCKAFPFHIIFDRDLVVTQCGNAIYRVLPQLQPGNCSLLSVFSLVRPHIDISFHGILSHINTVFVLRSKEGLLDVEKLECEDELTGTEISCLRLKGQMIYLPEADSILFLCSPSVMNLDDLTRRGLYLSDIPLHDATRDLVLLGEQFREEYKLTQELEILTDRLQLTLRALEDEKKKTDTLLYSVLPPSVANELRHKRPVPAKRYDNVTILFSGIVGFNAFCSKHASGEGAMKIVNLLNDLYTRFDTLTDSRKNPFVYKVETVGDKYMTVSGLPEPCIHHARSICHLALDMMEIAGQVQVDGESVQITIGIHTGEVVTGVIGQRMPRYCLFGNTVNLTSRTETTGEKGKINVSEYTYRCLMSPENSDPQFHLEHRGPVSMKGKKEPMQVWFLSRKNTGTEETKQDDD
The test is described as follows: Cell-based sGC Functional Assay (CASA Assay), cGMP generation. To be noted: CHO-K1/sGC cells, 1 hr at 37° C., cGMP by HTRF, 4P fit; presence or absence of 1 μM DETA-NO not given; read-out: IP (nM) (inflection point). Summed up:
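CHO-K1 cells stably expressing human sGC α1/β1 (4×10^5/mL, 0.5 mM IBMX) were treated with compounds (2.5% DMSO final) ± 1 μM DETA-NO for 1 hr at 37° C. Intracellular cGMP measured by HTRF. Activity expressed as % of Compound A maximal cGMP; IP and maximum fold induction from 4P fit.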
As for `CC1(c2ccc(F)c(F)c2)C(=O)Nc2nc(-c3cn4ncnc4c(CCC(F)(F)F)n3)nc(N)c21` (centres unmarked) [Example 84B, 4-amino-5-(3,4-difluorophenyl)-5-methyl-2-(8-(3,3,3-trifluoropropyl)-[1,2,4]triazolo[1,5-a]pyrazin-6-yl)-5H-pyrrolo[2,3-d]pyrimidin-6(7H)-one], the EC50 turned out to be 55.7 nM.

Take `C[C@@]1(c2ccc(F)cc2)C(=O)Nc2nc(-c3cn4ncnc4c(Cc4ccc(F)cc4)n3)nc(N)c21` [Example 85B, (S)-4-amino-2-(8-(4-fluorobenzyl)-[1,2,4]triazolo[1,5-a]pyrazin-6-yl)-5-(4-fluorophenyl)-5-methyl-5H-pyrrolo[2,3-d]pyrimidin-6(7H)-one]: the EC50 stood at 10.6 nM.

`COc1cccc(Cc2nc(-c3nc(N)c4c(n3)NC(=O)[C@@]4(C)c3ccc(F)cc3)cn3ncnc23)c1` [Example 86B, (S)-4-amino-5-(4-fluorophenyl)-2-(8-(3-methoxybenzyl)-[1,2,4]triazolo[1,5-a]pyrazin-6-yl)-5-methyl-5H-pyrrolo[2,3-d]pyrimidin-6(7H)-one]: the EC50 was 26.4 nM.

In the case of `Cc1nc2c(Cc3ccc(F)cc3)nc(-c3nc(N)c4c(n3)NC(=O)[C@@]4(C)c3ccc(F)cc3)cn2n1` [Example 87B, (S)-4-amino-2-(8-(4-fluorobenzyl)-2-methyl-[1,2,4]triazolo[1,5-a]pyrazin-6-yl)-5-(4-fluorophcnyl)-5-methyl-5H-pyrrolo[2,3-d]pyrimidin-6(7H)-one], the EC50 was 80.2 nM.

Consider `Cc1nc2c(CCC(F)(F)C(F)(F)F)nc(-c3nc(N)c4c(n3)NC(=O)[C@@]4(C)c3ccc(F)cc3)cn2n1` [Example 88B, (S)-4-amino-5-(4-fluorophenyl)-5-methyl-2-(2-methyl-8-(3,3,4,4,4-pentafluorobutyl)-[1,2,4]triazolo[1,5-a]pyrazin-6-yl)-5H-pyrrolo[2,3-d]pyrimidin-6(7H)-one], for which the EC50 was determined as 65 nM.

In the case of `Cc1nc2c(CCC(F)(F)C(F)(F)F)nc(-c3nc(N)c4c(n3)NC(=O)C4(C)c3ccc(F)cn3)cn2n1` (centres unmarked) [Example 89B, 4-amino-5-(5-fluoropyridin-2-yl)-5-methyl-2-(2-methyl-8-(3,3,4,4,4-pentafluorobutyl)-[1,2,4]triazolo[1,5-a]pyrazin-6-yl)-5H-pyrrolo[2,3-d]pyrimidin-6(7H)-one], the EC50 amounted to 260 nM.

As for `Cc1nc2c(CCC(F)(F)C(F)(F)F)nc(-c3nc(N)c4c(n3)NC(=O)C4(C)c3ccc(Cl)c(F)c3)cn2n1` (centres unmarked) [Example 90B, 4-amino-5-(4-chloro-3-fluorophenyl)-5-methyl-2-(2-methyl-8-(3,3,4,4,4-pentafluorobutyl)-[1,2,4]triazolo[1,5-a]pyrazin-6-yl)-5H-pyrrolo[2,3-d]pyrimidin-6(7H)-one], the EC50 came to 36.6 nM.

With `CCCc1nc(-c2nc(N)c3c(n2)NC(=O)[C@@]3(C)c2ccc(F)cc2)cn2nc(C)nc12` [Example 91A, (S)-4-amino-5-(4-fluorophenyl)-5-methyl-2-(2-methyl-8-propyl-[1,2,4]triazolo[1,5-a]pyrazin-6-yl)-5,7-dihydro-6H-pyrrolo[2,3-d]pyrimidin-6-one], the EC50 is 668 nM.

In the case of `CCCc1nc(-c2nc(N)c3c(n2)NC(=O)C3(C)c2ccc(F)cn2)cn2nc(C)nc12` (centres unmarked) [Example 92B, 4-amino-5-(5-fluoropyridin-2-yl)-5-methyl-2-(2-methyl-8-propyl-[1,2,4]triazolo[1,5-a]pyrazin-6-yl)-5H-pyrrolo[2,3-d]pyrimidin-6(7H)-one], the EC50 was 4830 nM.

On to `CCCc1nc(-c2nc(N)c3c(n2)NC(=O)C3(C)c2ccc(Cl)cc2)cn2nc(C)nc12` (centres unmarked) [Example 93A, 4-amino-5-(4-chlorophenyl)-5-methyl-2-(2-methyl-8-propyl-[1,2,4]triazolo[1,5-a]pyrazin-6-yl)-5H-pyrrolo[2,3-d]pyrimidin-6(7H)-one], for which the EC50 came out at 439 nM.

As for `CC1(c2ccc(Cl)cc2)C(=O)Nc2nc(-c3cn4ncnc4cn3)nc(N)c21` (centres unmarked) [Example 94A, 2-([1,2,4]triazolo[1,5-a]pyrazin-6-yl)-4-amino-5-(4-chlorophenyl)-5-methyl-5H-pyrrolo[2,3-d]pyrimidin-6(7H)-one], the EC50 is 79.4 nM.

Turning to `CC1(c2cn(C3CC3)nn2)C(=O)Nc2nc(-c3cn4ncnc4c(CCC(F)(F)C(F)(F)F)n3)nc(N)c21` (centres unmarked) [Example 95B, 4-Amino-5-(1-cyclopropyl-1H-1,2,3-triazol-4-yl)-5-methyl-2-(8-(3,3,4,4,4-pentafluorobutyl)-[1,2,4]triazolo[1,5-a]pyrazin-6-yl)-5H-pyrrolo[2,3-d]pyrimidin-6(7H)-one], the EC50 was found to be 257 nM.

As for `Nc1nc(-c2cn3ncnc3c(CCC(F)(F)C(F)(F)F)n2)nc2c1C(c1cn(C3CC3)nn1)(C1CC1)C(=O)N2` (centres unmarked) [Example 96B, 4-amino-5-cyclopropyl-5-(1-cyclopropyl-1H-1,2,3-triazol-4-yl)-2-(8-(3,3,4,4,4-pentafluorobutyl)-[1,2,4]triazolo[1,5-a]pyrazin-6-yl)-5H-pyrrolo[2,3-d]pyrimidin-6(7H)-one], the EC50 was 134 nM.

Regarding `CC1(c2nnc(C3CC3)o2)C(=O)Nc2nc(-c3cn4ncnc4c(CCC(F)(F)C(F)(F)F)n3)nc(N)c21` (centres unmarked) [Example 98B, 4-amino-5-(5-cyclopropyl-1,3,4-oxadiazol-2-yl)-5-methyl-2-(8-(3,3,4,4,4-pentafluorobutyl)-[1,2,4]triazolo[1,5-a]pyrazin-6-yl)-5H-pyrrolo[2,3-d]pyrimidin-6(7H)-one], the EC50 is 86.1 nM.

As for `CC1(c2nnc(C3CC3)o2)C(=O)Nc2nc(-c3cn4ncnc4c(CCCC(F)(F)F)n3)nc(N)c21` (centres unmarked) [Example 99A, 4-amino-5-(5-cyclopropyl-1,3,4-oxadiazol-2-yl)-5-methyl-2-(8-(4,4,4-trifluorobutyl)-[1,2,4]triazolo[1,5-a]pyrazin-6-yl)-5H-pyrrolo[2,3-d]pyrimidin-6(7H)-one], the EC50 was 47.5 nM.

Regarding `CC1(c2nnc(C(F)F)o2)C(=O)Nc2nc(-c3cn4ncnc4c(CCCC(F)(F)F)n3)nc(N)c21` (centres unmarked) [Example 100A, 4-amino-5-(5-(difluoromethyl)-1,3,4-oxadiazol-2-yl)-5-methyl-2-(8-(4,4,4-trifluorobutyl)-[1,2,4]triazolo[1,5-a]pyrazin-6-yl)-5H-pyrrolo[2,3-d]pyrimidin-6(7H)-one], the EC50 amounted to 127 nM.

On to `CC1(c2nnc(C(F)(F)F)o2)C(=O)Nc2nc(-c3cn4ncnc4c(CCCC(F)(F)F)n3)nc(N)c21` (centres unmarked) [Example 101A, 4-amino-5-methyl-2-(8-(4,4,4-trifluorobutyl)-[1,2,4]triazolo[1,5-a]pyrazin-6-yl)-5-(5-(trifluoromethyl)-1,3,4-oxadiazol-2-yl)-5H-pyrrolo[2,3-d]pyrimidin-6(7H)-one], for which the EC50 was found to be 121 nM.

On to `CCCCc1nc(-c2nc(N)c3c(n2)NC(=O)C3(C)c2nnc(C(F)(F)F)o2)cn2ncnc12` (centres unmarked) [Example 102A, 4-amino-2-(8-butyl-[1,2,4]triazolo[1,5-a]pyrazin-6-yl)-5-methyl-5-(5-(trifluoromethyl)-1,3,4-oxadiazol-2-yl)-5H-pyrrolo[2,3-d]pyrimidin-6(7H)-one], for which the EC50 came out at 29.1 nM.

For the molecule `Cc1nc2c(CCC(F)(F)C(F)(F)F)nc(-c3nc(N)c4c(n3)NC(=O)C4(C)c3nnc(C4CC4)o3)cn2n1` (centres unmarked) [Example 103A, 4-amino-5-(5-cyclopropyl-1,3,4-oxadiazol-2-yl)-5-methyl-2-(2-methyl-8-(3,3,4,4,4-pentafluorobutyl)-[1,2,4]triazolo[1,5-a]pyrazin-6-yl)-5H-pyrrolo[2,3-d]pyrimidin-6(7H)-one], the EC50 amounted to 219 nM.

Regarding `Nc1nc(-c2cn3ncnc3c(CCCC(F)(F)F)n2)nc2c1C(c1nnc(C3CC3)o1)(C1CC1)C(=O)N2` (centres unmarked) [Example 104A, 4-amino-5-cyclopropyl-5-(5-cyclopropyl-1,3,4-oxadiazol-2-yl)-2-(8-(4,4,4-trifluorobutyl)-[1,2,4]triazolo[1,5-a]pyrazin-6-yl)-5H-pyrrolo[2,3-d] pyrimidin-6(7H)-one], the EC50 stood at 258 nM.

Source of the values: patent US9822130B2, “Triazolo-pyrazinyl derivatives useful as soluble guanylate cyclase activators” (Merck Sharp & Dohme Corp., priority 2014, dated 2017).
